Assay results: US20120052122A1, “Treatment Of Chronic Obstructive Pulmonary Disease With Phosphodiesterase-4 Inhibitor” (Nycomed GmbH, priority 2010, published 2012)
Several values for one entry are separate records, joined by “and”; a condition that tells them apart may be missing. Equal values may be shown once.

Legend:
COPD patients = experiment: Adverse events in 14 double-blind, placebo-controlled Phase II/III studies; type: in vivo, human; settings: 14 Phase II/III studies, N = 6563
Excerpt: The population was 25 to 93 years old (median age 64), 72% were male, and 89% were white.

PDE3 = PDE3 inhibition; type: biochemical; settings: at the doses administered
rabbits = experiment: Embryo-fetal development studies in rabbits; type: in vivo, rabbit; settings: up to 0.8 mg/kg/day
Solubility in water = type: physicochemical; settings: drug substance
Plasma protein binding = type: in vitro ADME
B6C3F1 mice = experiment: Two year carcinogenicity study in B6C3F1 mice; type: in vivo, mouse; settings: gavage up to 12 mg/kg/day (males), 18 mg/kg/day (females), two years
Protocol: (§1) No other treatment-related neoplastic findings were observed. Overall, the tumor-free level in the animals was 4 mg/kg/day.

hamster = experiment: Two year hamster carcinogenicity studies; type: in vivo
Protocol: as §1

[1] = Standard battery of genotoxicity assays in vitro and in vivo
[2] = tested on: patients with COPD and chronic cough and sputum production; settings: in vivo
[3] = human, in vivo
[4] = in vivo
[5] = tested on: CYP 1A2, 2A6, 2B6, 2C8, 2C9, 2C19, 2D6, 2E1, 3A4/5, or 4A9/11
patients with COPD [6] = settings: Reference 13; cited from earlier work
[7] = tested on: unselected patients with severe COPD; settings: Reference 14; cited from earlier work
[8] = Human spermatogenesis study; settings: 500 mcg; 3-month treatment and 3-month off-treatment period
[9] = tested on: bronchial ciliary activity; experiment: Bronchial ciliary activity in vitro
patients with COPD [10] = experiment: Sputum cell counts in patients with COPD
experimental animals = experiment: Infiltration of leukocytes into the lungs of experimental animals
[11] = Pharmacokinetics in special populations (total PDE4 inhibitory activity); settings: in vivo
[12] = tested on: patients with COPD and chronic cough and sputum production; experiment: M2-125 study: 52-week placebo-controlled trial of oral roflumilast 500 μg once a day

O=C(Nc1c(Cl)cncc1Cl)c1ccc(OC(F)F)c(OCC2CC2)c1 [Roflumilast, N-(3,5-dichloropyridin-4-yl)-3-cyclopropylmethoxy-4-difluoromethoxy-benzamide]
Treatment-emergent adverse event Diarrhea, incidence (COPD patients; 250 mcg or 500 mcg per day): 10%
Treatment-emergent adverse event Abdominal pain, incidence (COPD patients): 2%
Treatment-emergent adverse event Back pain, incidence (COPD patients): 3%
Treatment-emergent adverse event Decreased appetite, incidence (COPD patients): 2%
Treatment-emergent adverse event Dizziness, incidence (COPD patients): 2%
Treatment-emergent adverse event Gastritis, incidence (COPD patients): 1%
Treatment-emergent adverse event Headache, incidence (COPD patients): 4%
Treatment-emergent adverse event Insomnia, incidence (COPD patients): 2%
Treatment-emergent adverse event Nausea, incidence (COPD patients): 5%
Treatment-emergent adverse event Tremor, incidence (COPD patients): 2%
Treatment-emergent adverse event Weight decreased, incidence (COPD patients): 6%
Inhibitory effect on PDE3 (PDE3): no appreciable inhibitory effect
Teratogenicity (rabbits; oral): not teratogenic
Post-implantive losses (rabbits): not seen
Solubility in water (Solubility in water): poorly soluble
fraction unbound (Plasma protein binding): ~0.01
Tumors (B6C3F1 mice): No compound-related tumors
Neoplastic findings (hamster; hamster, up to 16 mg/kg/day, two year): nasal neoplasms were caused by a drug metabolite, which is absent in humans
Tumor-free level in the animals (hamster; overall): 4 mg/kg/day
Genotoxic potential [1]: did not reveal a genotoxic potential
Adverse event Upper respiratory tract infection, patients ([2]; human, 52 weeks): 33 (4%) number (%)
Occurrence of rhythm disturbances vs placebo [2]: no difference
Absorption or pharmacokinetics on co-administration with an antacid [3]: did not alter
Increase in the total PDE4 inhibition with strong CYP 1A2 inhibitors, such as fluvoxamine [3]: 20-60%
Interactions with inhaled salbutamol, formoterol, budesonide, oral theophylline, montelukast, digoxin, warfarin, sildenafil, midazolam and an oral contraceptive [3]: No clinically relevant interactions
Reduction in total PDE4 inhibitory activity with rifampicin [3]: about 60%
Total PDE4 inhibitory activity with CYP 3A4 inhibitors (erythromycin and ketoconazole) [3]: did not result in increases
Total PDE4 inhibitory activity with fluvoxamine, enoxacin and cimetidine [3]: resulted in increases
Delay of tmax by food intake ([4]; human): one
Plasma AUC ([4]; human): 28 ugxh/L
Radioactivity recovered in the urine ([4]; human): about 70%
Reduction of Cmax by food intake ([4]; human): approximately 40%
Time of maximum plasma concentrations after dosing, range ([4]; human): 0.5 to 2 h
Time to steady state plasma concentrations ([4]; human): approximately 4 days
Effect of food intake on total PDE4 inhibitory activity [4]: does not affect
Time of maximum plasma concentrations after dosing [4]: approximately one
Inhibition of CYP 1A2, 2A6, 2B6, 2C8, 2C9, 2C19, 2D6, 2E1, 3A4/5, or 4A9/11 [5]: do not inhibit
Airway inflammation, sputum neutrophil and eosinophil counts (patients with COPD [6]): reduces airway inflammation
Frequency of exacerbations [7]: did not significantly reduce
Semen parameters or reproductive hormones [8]: no effects
Bronchial ciliary activity [9]: stimulated
Sputum neutrophils (patients with COPD [10]): reduced
Infiltration of leukocytes, in particular neutrophils, into the lungs (experimental animals): inhibited
Total PDE4 inhibitory activity in smokers [11]: slightly decreased
Total PDE4 inhibitory activity in the elderly [11]: increased
Total PDE4 inhibitory activity in women compared with men [11]: increased
Change in C-reactive protein from baseline to last postrandomisation visit [12]: 1.1; n = 680 mg/L
Median time to first exacerbation (moderate or severe) [IQR] [12]: 73.0 (26.0-195.0); days
Median time to second exacerbation (moderate or severe) [IQR] [12]: 188.0 (84.0-281.0) days
Number of patients needed to treat to prevent one moderate or severe exacerbation per year [12]: 3.6 and 3.64
Time to mortality (mean, SD) [12]: 201.0 days
Exacerbations moderate or severe, mean rate [95% CI] ([12]; 52 weeks): 1.21 (1.07-1.36); per patient, per year
Exacerbations moderate, mean rate [95% CI] ([12]; 52 weeks): 1.04 (0.92-1.18); per patient, per year
Exacerbations severe, mean rate [95% CI] ([12]; 52 weeks): 0.14 (0.10-0.20); per patient, per year
Exacerbations treated with systemic corticosteroids, antibiotics, or both, mean rate [95% CI] ([12]; 52 weeks): 1.17 (1.04-1.31); per patient, per year
Change in postbronchodillator FEV1/FVC ([12]; 52 weeks, mean): 0.552%
Change in prebronchodillator FEV1/FVC ([12]; 52 weeks, mean): 0.200%
Change in postbronchodillator FEF25-75 ([12]; 52 weeks, mean (SE)): 21 (5); n = 724 mL/s
Change in postbronchodillator FEV1 ([12]; 52 weeks, mean (SE)): 44 (7); n = 724 mL
Change in postbronchodillator FVC ([12]; 52 weeks, mean (SE)): 58 (13); mL
Change in postbronchodillator PEF ([12]; 52 weeks, mean (SE)): 1.93 (1.49); L/min
Change in prebronchodillator FEF25-75 ([12]; 52 weeks, mean (SE)): 15 (5); n = 730 mL/s
Change in prebronchodillator FEV1 ([12]; 52 weeks, mean (SE)): 33 (7); n = 730 mL
Change in prebronchodillator FVC ([12]; 52 weeks, mean (SE)): 60 (14); mL
Change in prebronchodillator PEF ([12]; 52 weeks, mean (SE)): 0.75 (1.45); L/min
Adverse event Influenza, difference ([12]; Roflumilast vs Placebo): −0.99% (−2.51 to 0.53)
Adverse event Upper respiratory tract infection, difference ([12]; Roflumilast vs Placebo): −0.57% (−2.75 to 1.62)
Change in C-reactive protein from baseline to last postrandomisation visit, difference ([12]; Roflumilast vs Placebo): Difference 1.1 mg/L
Change in postbronchodillator FEF25-75, difference ([12]; Roflumilast vs Placebo): Difference 29 (18 mL/s
Change in postbronchodillator FEV1, difference ([12]; Roflumilast vs Placebo): Difference 61 (44 mL
Change in postbronchodillator FEV1/FVC, difference ([12]; Roflumilast vs Placebo): Difference 0.668%
Change in postbronchodillator FVC, difference ([12]; Roflumilast vs Placebo): Difference 103 mL
Change in postbronchodillator PEF, difference ([12]; Roflumilast vs Placebo): Difference 5.07 L/min
Change in prebronchodillator FEF25-75, difference ([12]; Roflumilast vs Placebo): Difference 25 (13 mL/s
Change in prebronchodillator FEV1, difference ([12]; Roflumilast vs Placebo): Difference 58 (41 mL
Change in prebronchodillator FEV1/FVC, difference ([12]; Roflumilast vs Placebo): Difference 0.510%
Change in prebronchodillator FVC, difference ([12]; Roflumilast vs Placebo): Difference 108 mL
Change in prebronchodillator PEF, difference ([12]; Roflumilast vs Placebo): Difference 3.85 L/min
EQ-5D total score, difference ([12]; Roflumilast vs Placebo): Difference 0.0106
TDI focal score, difference ([12]; Roflumilast vs Placebo): Difference 0.3
Change in prebronchodillator FVC, difference ([12]; Roflumilast vs Placebo, listed as roflumilast): 108 mL
EQ-5D total score ([12]; mean): 0.0100
TDI focal score ([12]; mean (SE)): 0.7 (0.1);
Adverse event Influenza, patients ([12]; n = 778): 12 (2%) number (%)
